Data published in patent US5034309A, “Naphthalocyanine derivatives and their use in optical recording medium” (Hitachi Chemical Co., Ltd., priority 1987, dated 1991).

Assays:
[1] = electronic spectra in various solvents; type: physicochemical
Protocol: Bis(tri-n-propylsiloxy)silicon-tetra(ndodecylthio)n-aphthalocyanine [illustrative compound (100)] was dissolved in various solvents and its electronic spectra were measured. The electronic spectra in chloroform, tetrahydrofuran, acetone, toluene and hexane are shown in […], FIG. 35, FIG. 36, FIG. 37 and FIG. 38, respectively.
Vanadyl-tetra(t-butyl)-naphthalocyanine synthesized according to the method described in Zhurnal Obshchei Khimii, vol. 42, p. 696 (1972) was dissolved in each of chloroform and benzene and its electronic spectra were measured. The electronic spectra in chloroform and benzene are shown in FIG. 41 and FIG. 42, respectively.

[2] = transmission and 5° regular-reflection spectra of spin-coated organic film on glass plate; type: physicochemical; conditions: 2 parts in 98 parts 1,1,2-trichloroethane
Protocol: A solution composed of 2 parts by weight of bis(tri-n-propylsiloxy)silicon-tetra(n-dodecylthio)naphthalocyanine [illustrative compound (100)] and 98 parts by weight of 1,1,2-trichloroethane was coated on a glass plate by a spin coating method and dried at about 80° C. for about 15 minutes to form an organic film. Transmission spectrum and 5° regular-reflection spectrum of the organic film of the illustrative compound are shown in FIG. 39 and FIG. 40, respectively.
An organic film of the same vanadyl-tetra(t-butyl) naphthalocyanine as used in Comparative Example 1 was formed on a glass plate in the same manner as in Test Example 2, and transmission spectrum (FIG. 43) and 5° regular-reflection spectrum (FIG. 44) of the organic film were measured.
A solution composed of 1 part by weight of each of the naphthalocyanine derivatives (127), (99) and (102) exemplified and 99 parts by weight of tetrahydrofuran was coated on a glass plate by a spin coating method and dried at about 80° C. for about 15 minutes to form an organic film. Transmission spectra and 5° regular-reflection spectra of the thus formed organic films of the naphthalocyanine derivatives are summarized in FIG. 45 and FIG. 46, respectively.

reflectivity in the diode laser region (780 to 830 nm) [2]: ≤ 20%
Substance: Vanadyl-tetra(t-butyl)-naphthalocyanine
change of absorption with concentration ([1]; electronic spectra in chloroform and benzene): The higher the concentration, the weaker the absorption near 800 nm and the stronger the absorption at 720 to 730 nm | dependence of absorption waveform on kind of solvent and concentration ([1]; electronic spectra in solution): varied depending on the kind of solvent and the conventration of solution | light-absorbing ability in the diode laser region (780 to 830 nm) [2]: did not have very high light-absorbing ability
